Data taken from patent US8299068B2, “Therapeutically active cyclopentanes” (Allergan, Inc., priority 2010, dated 2012).

How the values were obtained:
EP4 [1] = molecular target: T1, EP4 (Homo sapiens, UniProt P35408); test: EP4 Ca2+ signal functional assay; format: cell-based
Description: (§1) U.S. Pat. No. 7,427,685 incorporated by reference herein, describes the methods used to obtain the in vitro data in Table 2 below.

EP4 [2] = molecular target: T1, EP4; test: EP4 binding (Ki)
Description: as §1

EP2 [3] = molecular target: T2, EP2 (Homo sapiens, UniProt P43116); test: EP2 cAMP functional assay; format: cell-based
T2 sequence (P43116 whole entry): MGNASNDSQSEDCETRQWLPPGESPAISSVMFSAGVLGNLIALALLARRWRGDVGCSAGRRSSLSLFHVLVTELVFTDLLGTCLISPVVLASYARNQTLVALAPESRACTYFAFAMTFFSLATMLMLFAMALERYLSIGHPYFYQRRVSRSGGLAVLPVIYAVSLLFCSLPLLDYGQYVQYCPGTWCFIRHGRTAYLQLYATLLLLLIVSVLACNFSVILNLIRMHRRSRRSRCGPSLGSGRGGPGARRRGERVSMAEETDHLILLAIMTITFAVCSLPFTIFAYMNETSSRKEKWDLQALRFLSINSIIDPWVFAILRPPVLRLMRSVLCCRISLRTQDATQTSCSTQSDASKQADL
Description: as §1

DP = molecular target: T3, DP (Homo sapiens, UniProt Q13258); test: Other receptors Ca2+ functional assay, DP; format: cell-based
T3 sequence (Q13258 1-359): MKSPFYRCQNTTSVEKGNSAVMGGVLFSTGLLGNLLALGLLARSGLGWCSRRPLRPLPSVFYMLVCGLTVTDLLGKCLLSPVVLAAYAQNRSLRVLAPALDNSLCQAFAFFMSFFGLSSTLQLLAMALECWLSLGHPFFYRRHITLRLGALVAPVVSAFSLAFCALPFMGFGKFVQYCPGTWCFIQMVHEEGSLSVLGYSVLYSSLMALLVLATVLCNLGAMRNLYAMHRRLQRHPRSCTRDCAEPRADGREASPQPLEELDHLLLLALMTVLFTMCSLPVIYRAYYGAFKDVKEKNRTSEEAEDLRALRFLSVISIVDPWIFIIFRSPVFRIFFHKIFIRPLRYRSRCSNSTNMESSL
Description: as §1

EP2 [4] = molecular target: T2, EP2; test: EP2 binding (Ki)
Description: as §1

EP2 [5] = molecular target: T2, EP2; test: EP2 Ca2+ signal functional assay; format: cell-based
Description: as §1

EP3 = molecular target: T4, EP3 (Homo sapiens, UniProt P43115); test: Other receptors Ca2+ functional assay, EP3; format: cell-based
T4 sequence (P43115 1-390): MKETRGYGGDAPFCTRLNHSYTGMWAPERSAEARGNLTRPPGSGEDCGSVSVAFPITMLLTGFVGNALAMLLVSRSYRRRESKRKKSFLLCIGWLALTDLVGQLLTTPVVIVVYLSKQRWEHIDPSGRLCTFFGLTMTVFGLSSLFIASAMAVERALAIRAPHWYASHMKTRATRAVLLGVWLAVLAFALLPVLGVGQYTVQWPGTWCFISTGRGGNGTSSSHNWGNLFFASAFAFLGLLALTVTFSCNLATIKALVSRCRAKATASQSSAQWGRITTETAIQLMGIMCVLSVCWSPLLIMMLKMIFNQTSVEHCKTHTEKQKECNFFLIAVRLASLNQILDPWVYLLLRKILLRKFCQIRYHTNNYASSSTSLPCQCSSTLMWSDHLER
Description: as §1

T1 sequence (P35408 whole entry): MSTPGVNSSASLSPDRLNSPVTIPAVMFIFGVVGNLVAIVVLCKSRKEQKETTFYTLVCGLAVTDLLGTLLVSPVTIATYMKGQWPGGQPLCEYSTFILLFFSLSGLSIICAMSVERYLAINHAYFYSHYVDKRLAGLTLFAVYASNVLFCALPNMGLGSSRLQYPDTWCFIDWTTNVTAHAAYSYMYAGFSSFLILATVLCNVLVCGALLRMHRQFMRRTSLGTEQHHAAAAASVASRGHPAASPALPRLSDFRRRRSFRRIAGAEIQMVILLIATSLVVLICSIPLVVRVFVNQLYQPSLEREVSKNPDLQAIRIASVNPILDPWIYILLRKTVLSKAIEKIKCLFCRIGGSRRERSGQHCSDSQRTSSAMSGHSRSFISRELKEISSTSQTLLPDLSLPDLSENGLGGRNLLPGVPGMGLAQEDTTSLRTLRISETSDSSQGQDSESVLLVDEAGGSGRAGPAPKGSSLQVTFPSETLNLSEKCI

EC50 (EP4 [1]) [nM]	Ki (EP4 [2]) [nM]	EC50 (EP2 [3]) [nM]	EC50 (DP) [nM]	Ki (EP2 [4]) [nM]	EC50 (EP2 [5]) [nM]	EC50 (EP3) [nM]	SMILES
1350	2740	0.9	191	10	3		O=C(O)c1ccc(CCC[C@@H]2[C@@H](/C=C/C3CCCC3)[C@H](O)C[C@H]2Cl)s1 [Entry 2]
6640	2150	0.2	548	0.8	12	9050	O=C(O)c1ccc(CCC[C@@H]2[C@@H](CCC3CCCCC3)[C@H](O)C[C@H]2Cl)s1 [Entry 3]
3320	2710	0.5	2160	4	7	5220	O=C(O)c1ccc(CCC[C@@H]2[C@@H](/C=C/C3CCCCC3)[C@H](O)C[C@H]2Cl)s1 [Entry 4]
9330	5060	152		1040	2410		CCCCCC1(CC[C@@H]2[C@@H](CCCc3ccc(C(=O)O)s3)[C@H](Cl)C[C@H]2O)CCCCC1 [Entry 5]
3070	2620	0.6	259	9	4		O=C(O)c1ccc(CCC[C@@H]2[C@@H](CCC3CCCC3)[C@H](O)C[C@H]2Cl)s1 [compound 1]
